Measurements reported in patent publication US20030225007A1, “Sulfonamide derivatives of 3-substituted imidazol[1,2-d]-1,2,4-thiadiazoles and 3-substituted-[1,2,4] thiadiazolo[4,5-a] benzimidazole as inhibitors of fibrin cross-linking and transglutaminases” (Apotex Inc., priority 2002, published 2003).

What was measured:
[1] = molecular target: T1, endogenous Factor XIII in plasma (Plasma FXIIIa) (Homo sapiens, UniProt P00488); experiment: Inactivation of endogenous Factor XIII in plasma; assay type: biochemical; details: citrated plasma, thrombin-activated, 5 min at 37° C.
T1 construct: from tissue; host or cells: citrated plasma (desensitized by heating)
T1 sequence (P00488 39-732 limits assumed): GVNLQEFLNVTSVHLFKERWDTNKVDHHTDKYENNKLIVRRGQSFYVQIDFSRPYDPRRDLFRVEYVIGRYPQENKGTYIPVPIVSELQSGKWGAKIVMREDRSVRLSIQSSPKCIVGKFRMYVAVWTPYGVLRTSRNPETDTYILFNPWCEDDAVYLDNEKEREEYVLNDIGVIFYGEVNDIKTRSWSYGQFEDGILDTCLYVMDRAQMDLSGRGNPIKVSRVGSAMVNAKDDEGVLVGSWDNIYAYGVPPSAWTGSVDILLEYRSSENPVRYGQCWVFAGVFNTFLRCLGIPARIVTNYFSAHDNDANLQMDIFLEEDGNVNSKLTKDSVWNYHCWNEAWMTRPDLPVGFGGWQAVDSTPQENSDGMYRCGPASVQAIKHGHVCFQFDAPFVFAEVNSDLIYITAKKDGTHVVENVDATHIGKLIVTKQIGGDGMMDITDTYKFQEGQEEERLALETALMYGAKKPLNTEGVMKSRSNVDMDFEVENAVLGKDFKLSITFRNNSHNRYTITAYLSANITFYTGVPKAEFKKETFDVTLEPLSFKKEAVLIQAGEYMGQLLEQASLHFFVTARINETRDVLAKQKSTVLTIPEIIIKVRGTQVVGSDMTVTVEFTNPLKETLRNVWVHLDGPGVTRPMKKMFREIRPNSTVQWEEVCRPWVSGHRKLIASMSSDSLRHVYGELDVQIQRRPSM
Description: Citrated plasma (0.235 mL) was “desensitized” by heating with ethylene glycol monomethyl ether (0.235 mL, 20% solution in water) in a glass test tube at 56° C. for 4 min., as described by Lorand (Lorand, L.; Lockridge, O. M.; Campbell, L. K.; Myhrman, R.; Bruner-Lorand, J. Anal.Biochem. 1971, 44, 221-231). After cooling to 37° C., calcium chloride (20 μL, 0.4 M in 50 mM Tris-HCl pH 7.5) and inhibitor solution in 50% glycerol (59 μL) were added. Bovine thrombin (30 NIH units in 118 μL of 50 mM Tris-HCl pH 7.5 containing 20 mM CaCl2) was added and the mixture was incubated at 37° C. for 5 min.
An assay mixture composed of 0.1 M sodium borate, pH 9.0, 0.3% ethylene glycol monomethyl ether, 32 μM monodansylcadaverine, 10 mM CaCl2 and 0.08% dimethyl casein in a final volume of 1.263 mL was prepared in a spectrofluorometric cell and incubated at 37° C. for a few minutes. To assay the residual enzyme activity, 567 μL of the plasma solution was transferred to the assay mixture. The covalent incorporation of monodansylcadaverine into casein was monitored by an increase in fluorescence at λex=360 nm and λem=500 nm, as previously described (Curtis, C. G.; Lorand, L. Methods Enzymol. 1976, 45, 177-191). To determine uninhibited enzyme activity, inhibitor solution was replaced by 50% glycerol. IC50 values (inhibitor concentration resulting in 50% enzyme inactivation) were determined by plotting the percent of remaining enzyme activity against logarithm of inhibitor concentration.

[2] = molecular target: T2, Factor XIIIa (activated FXIII) (Homo sapiens, UniProt P00488); experiment: Inactivation of purified Factor XIIIa (monodansylcadaverine incorporation into dimethylcasein, fluorescence); assay type: biochemical; details: purified activated FXIII; 50% enzyme inactivation after 5-min incubation with inhibitor at 37° C. in the absence of substrate; read-out: FXIIIa (IC50 in μM)
T2 construct: purchased Enzyme Research Laboratories, Ltd
T2 sequence (P00488 39-732 limits assumed): T1 sequence (P00488 39-732 limits assumed)
Description: FXIII (0.5 mg/mL, Enzyme Research Laboratories, Ltd.) in 50 mM Tris-HCl pH 7.5 containing 100 mM NaCl, 40 mM CaCl2, 1 mM EDTA and 0.1% poly(ethylene glycol) (app. MW=8000) was activated by incubation with 10 NIH units/mL of human thrombin (Calbiochem) at 37° C. for 20 min. Thrombin was quenched with 20 NIH units/mL of hirudin from Leech (Sigma).
Inhibitor solution in DMSO (14 μL) was added to 120 μL of 250 mM Tris-Cl pH 7.5 containing 40 mM CaCl2 and 1 mM EDTA and the solution was incubated at 37° C. for two minutes. Activated FXIII (5 μL, 0.5 mg/mL) was added and the mixture was incubated at 37° C. for 5 min.
An assay mixture composed of 50 mM Tris-Cl pH 8.0, 10 mM CaCl2, 1 mM EDTA, 0.1% poly(ethylene glycol) (app. MW=1000) and 20 μM monodansylcadaverine was prepared in a spectrofluorometric cell in a final volume of 2880 μL. Dimethylcasein (8 μL, 1% in 50 mM sodium phosphate pH 7.5) was added and the solution was incubated at 37° C. for a few minutes. To assay the residual enzyme activity, 120 μL of the solution containing the enzyme and the inhibitor was transferred to the assay mixture. The covalent incorporation of monodansylcadaverine into casein was monitored by an increase in fluorescence at λexc=360 nm and λem=500 nm as previously described (Curtis, C. G.; Lorand, L. Methods Enzymol. 1976, 45, 177-191). To determine uninhibited enzyme activity, DMSO was used in place of inhibitor solution in the above assay. IC50 were determined by plotting the percent of remaining enzyme activity against logarithm of inhibitor concentration. IC50 is defined here as an inhibitor concentration resulting in 50% enzyme inactivation after 5-min incubation of the enzyme with the inhibitor in the absence of the substrate. Second order rate constants for inactivation were determined using method described by Kitz and Wilson (Kitz, R.; Wilson, I. J. Biol. Chem. 1962, 237, 3245).

SMILES | IC50 [1] [µM] | melting point [°C] | IC50 [2] [µM]
CN(C)c1cccc2c(S(=O)(=O)NCCCCCNc3nsc4nccn34)cccc12 [1 / 5-Me2N-1-naphthyl, 5-(Dimethylamino)-N-[5-(imidazo[1,2-d][1,2,4]thiadiazol-3-ylamino)pentyl]naphthalene-1-sulfonamide] | 7.1 | – | –
CS(=O)(=O)NCCCCCCNc1nsc2nccn12 [2 / CH3, N-[6-(Imidazo[1,2-d][1,2,4]thiadiazol-3-ylamino)hexyl]methanesulfonamide] | 38 | – | –
O=C(O)CCN(CCCCCCNc1nsc2nccn12)S(=O)(=O)c1ccc(F)cc1F [2 / OH / 2-F-4-F-Ph, N-[(2,4-difluorophenyl)sulfonyl]-N-[6-(imidazo[1,2-d][1,2,4]thiadiazol-3-ylamino)hexyl]-β-alanine] | – | 97 to 100 | 5.2
Nc1ccccc1S(=O)(=O)NCCCCCCNc1nsc2nccn12 [2-NH2-Ph, 2-amino-N-[6-(imidazo[1,2-d][1,2,4]thiadiazol-3-ylamino)hexyl]benzenesulfonamide] | – | 138 to 139 | 2

Next, values leading:

IC50 [1] [µM] | melting point [°C] | IC50 [2] [µM] | SMILES
– | 151 to 153 | 1.3 | Cc1c(Cl)cccc1S(=O)(=O)NCCCCCCNc1nsc2nccn12 [2-Me-3-Cl-Ph, 3-chloro-N-[6-(imidazo[1,2-d][1,2,4]thiadiazol-3-ylamino)hexyl]-2-methylbenzenesulfonamide]
– | 140 to 142 | 10 | Cc1ccc(F)cc1S(=O)(=O)NCCCCCCNc1nsc2nccn12 [2-Me-5-F-Ph, 5-fluoro-N-[6-(imidazo[1,2-d][1,2,4]thiadiazol-3-ylamino)hexyl]-2-methylbenzenesulfonamide]
– | 113.7 to 114.6 | – | O=[N+]([O-])c1ccccc1S(=O)(=O)NCCCCCCNc1nsc2nccn12 [H / H / 2-NO2-Ph, N-[6-(imidazo[1,2-d][1,2,4]thiadiazol-3-ylamino)hexyl]-2-nitrobenzenesulfonamide]
